The numbers were not newly measured in patent US20250282901A1, “POLYMERIC CHELATORS CROSS-LINKED WITH HIGH MOLECULAR WEIGHT CROSS-LINKERS” (THE UNIVERSITY OF KANSAS, priority 2021, published 2025), which cites them from elsewhere.

The structures appear in SMILES notation.

For `O=C(N[C@H]1COC(=O)[C@@H](NC(=O)c2cccc(O)c2O)COC(=O)[C@@H](NC(=O)c2cccc(O)c2O)COC1=O)c1cccc(O)c1O` [Enterobactin], where the note is “Fe(III)”, the “relative iron binding constant” value is listed as 35.5. Also, the “Log K” value (natural iron chelator) is reported as 52.
